From BigSolDB 2.1

## C=CC(=O)Nc1cc(F)c(Br)c(F)c1
In acetonitrile, 284.65 K
  solubility (mole fraction): 0.006
In acetonitrile, 291.45 K
  solubility (mole fraction): 0.0079
In acetonitrile, 294.75 K
  solubility (mole fraction): 0.009
In acetonitrile, 298.25 K
  solubility (mole fraction): 0.0104
In acetonitrile, 301.85 K
  solubility (mole fraction): 0.0121
In acetonitrile, 305.35 K
  solubility (mole fraction): 0.0139
In acetonitrile, 308.45 K
  solubility (mole fraction): 0.0158
In acetonitrile, 312.75 K
  solubility (mole fraction): 0.0186
In acetonitrile, 316.65 K
  solubility (mole fraction): 0.0217
In acetonitrile, 320.05 K
  solubility (mole fraction): 0.0248
In acetonitrile, 323.85 K
  solubility (mole fraction): 0.0288
In acetonitrile, 327.65 K
  solubility (mole fraction): 0.0332
In acetonitrile, 331.75 K
  solubility (mole fraction): 0.0386
In acetonitrile, 334.15 K
  solubility (mole fraction): 0.0423
In acetonitrile, 337.75 K
  solubility (mole fraction): 0.0482
In acetonitrile, 340.45 K
  solubility (mole fraction): 0.0533
In acetonitrile, 343.55 K
  solubility (mole fraction): 0.0596
In acetonitrile, 346.35 K
  solubility (mole fraction): 0.0662
In acetonitrile, 348.95 K
  solubility (mole fraction): 0.0725
In benzene, 296.35 K
  solubility (mole fraction): 0.0007
In benzene, 302.95 K
  solubility (mole fraction): 0.0011
In benzene, 308.75 K
  solubility (mole fraction): 0.0014
In benzene, 310.75 K
  solubility (mole fraction): 0.0015
In benzene, 317.65 K
  solubility (mole fraction): 0.0022
In benzene, 324.25 K
  solubility (mole fraction): 0.003
In benzene, 332.05 K
  solubility (mole fraction): 0.0044
In benzene, 335.95 K
  solubility (mole fraction): 0.0054
In benzene, 340.85 K
  solubility (mole fraction): 0.0067
In benzene, 347.05 K
  solubility (mole fraction): 0.0094
In ethanol, 295.25 K
  solubility (mole fraction): 0.0251
In ethanol, 297.65 K
  solubility (mole fraction): 0.0264
In ethanol, 301.55 K
  solubility (mole fraction): 0.0292
In ethanol, 309.25 K
  solubility (mole fraction): 0.0351
In ethanol, 312.95 K
  solubility (mole fraction): 0.0384
In ethanol, 318.55 K
  solubility (mole fraction): 0.044
In ethanol, 326.45 K
  solubility (mole fraction): 0.0534
In ethanol, 331.35 K
  solubility (mole fraction): 0.0604
In ethanol, 334.85 K
  solubility (mole fraction): 0.0659
In ethanol, 339.55 K
  solubility (mole fraction): 0.074
In ethanol, 344.45 K
  solubility (mole fraction): 0.0838
In ethanol, 347.55 K
  solubility (mole fraction): 0.0905
In methanol, 294.25 K
  solubility (mole fraction): 0.0142
In methanol, 298.65 K
  solubility (mole fraction): 0.0163
In methanol, 303.16 K
  solubility (mole fraction): 0.0189
In methanol, 308.45 K
  solubility (mole fraction): 0.0221
In methanol, 312.35 K
  solubility (mole fraction): 0.0249
In methanol, 318.15 K
  solubility (mole fraction): 0.0298
In methanol, 321.05 K
  solubility (mole fraction): 0.0325
In methanol, 324.65 K
  solubility (mole fraction): 0.036
In methanol, 327.45 K
  solubility (mole fraction): 0.0391
In methanol, 328.95 K
  solubility (mole fraction): 0.041
In pyridine, 288.95 K
  solubility (mole fraction): 0.139
In pyridine, 292.45 K
  solubility (mole fraction): 0.145
In pyridine, 298.95 K
  solubility (mole fraction): 0.157
In pyridine, 303.85 K
  solubility (mole fraction): 0.166
In pyridine, 310.25 K
  solubility (mole fraction): 0.178
In pyridine, 317.05 K
  solubility (mole fraction): 0.193
In pyridine, 322.55 K
  solubility (mole fraction): 0.205
In pyridine, 328.45 K
  solubility (mole fraction): 0.219
In pyridine, 333.15 K
  solubility (mole fraction): 0.23
In pyridine, 338.25 K
  solubility (mole fraction): 0.243
In pyridine, 344.95 K
  solubility (mole fraction): 0.262
In pyridine, 348.85 K
  solubility (mole fraction): 0.273
In toluene, 286.65 K
  solubility (mole fraction): 0.0006
In toluene, 291.95 K
  solubility (mole fraction): 0.0008
In toluene, 292.05 K
  solubility (mole fraction): 0.0008
In toluene, 295.95 K
  solubility (mole fraction): 0.0009
In toluene, 301.75 K
  solubility (mole fraction): 0.0011
In toluene, 301.85 K
  solubility (mole fraction): 0.0012
In toluene, 307.95 K
  solubility (mole fraction): 0.0015
In toluene, 312.05 K
  solubility (mole fraction): 0.0019
In toluene, 316.05 K
  solubility (mole fraction): 0.0022
In toluene, 319.25 K
  solubility (mole fraction): 0.0026
In toluene, 323.75 K
  solubility (mole fraction): 0.003
In toluene, 327.95 K
  solubility (mole fraction): 0.0035
In toluene, 331.15 K
  solubility (mole fraction): 0.0043
In toluene, 334.65 K
  solubility (mole fraction): 0.0051
In toluene, 337.65 K
  solubility (mole fraction): 0.0059
In toluene, 342.35 K
  solubility (mole fraction): 0.0069
